Laboratory results: patent US20100317626A1, “The Use Of (3-Amino-2-Fluoropropyl) Phosphinic Acid For Treatment Of NERD” (ASTRAZENECA AB, priority 2007, published 2010)

Legend:
[1] = test system: transient lower esophageal sphincter relaxations (TLESRs); assay: Clinical study: number of TLESRs after a standardised meal, single-blind randomised placebo-controlled; type: in vivo, healthy volunteers; conditions: for reduction of the number of transient lower esophageal sphincter relaxations (TLESRs) as compared to placebo: healthy volunteers, 0-3 hours after intake of a standardised meal completed 1 hour after drug intake
Protocol: A clinical study of (2R)-(3-Amino-2-fluoropropyl)phosphinic acid was performed. The study was a single-blind, randomised, parallel group, placebo-controlled study in healthy volunteers. Each subject was given 2 doses of (2R)-(3-Amino-2-fluoropropyl)phosphinic acid in escalating order and one placebo dose. A dose of (2R)-(3-Amino-2-fluoropropyl)phosphinic acid 0.8 mg/kg was compared to placebo and baclofen (40 mg) was used as a positive control. The order of treatments was randomised. The number of transient lower esophageal sphincter relaxations (TLESRs) 0-3 hours after intake of a standardised meal, (completed 1 hour after drug intake) were reduced by 36% and 47% for (2R)-(3-Amino-2-fluoropropyl)phosphinic acid and baclofen respectively, as compared to placebo (FIG. 1).

[2] = test system: bile reflux and reflux symptoms; conditions: patients with persistent non-acid duodenogastroesophageal reflux; cited from earlier work
[3] = clinical study in healthy volunteers

Row | SMILES | inhibition of TLESRs (result in words) [1, 3] | tolerability [1, 3] | reduction of the number of transient lower esophageal sphincter relaxations (TLESRs) as compared to placebo ([1]; dose 0.8 mg/kg) | effect on bile reflux and reflux symptoms [2] | reduction of the number of transient lower esophageal sphincter relaxations (TLESRs) as compared to placebo ([1]; baclofen 40 mg, positive control)
1 | NC[C@@H](F)C[PH](=O)O [(2R)-(3-Amino-2-fluoropropyl)phosphinic acid] | efficacious | well tolerated | 36% | – | –
2 | NCC(CC(=O)O)c1ccc(Cl)cc1 (centres unmarked) [baclofen, reference compound] | – | – | – | inhibit the occurrence of bile reflux and reflux symptoms | 47%
